From patent US6903114B2, “Derivatives of naphthalene with COMT inhibiting activity” (Orion Corporation, priority 2000, dated 2005)

molecular target: T1, S-COMT enzyme (Homo sapiens, UniProt P21964); test: Determination of COMT activity (IC50); assay type: biochemical; conditions: S-COMT about 30 nM, 3 mM dopamine substrate, 0.05 mM AdoMet, 5 mM MgCl2, pH 7.4, 37° C., 15 min; HPLC
T1 sequence (P21964 1-221 isoform P21964-2): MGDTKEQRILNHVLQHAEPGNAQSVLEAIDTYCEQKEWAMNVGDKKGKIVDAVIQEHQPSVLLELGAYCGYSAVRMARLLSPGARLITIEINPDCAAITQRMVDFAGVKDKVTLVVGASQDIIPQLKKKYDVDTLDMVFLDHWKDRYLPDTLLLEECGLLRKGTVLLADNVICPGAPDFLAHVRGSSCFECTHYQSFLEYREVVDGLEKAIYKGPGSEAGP
Experimental: EXPERIMENT I: Determination of COMT activity (IC50)
The determination of IC50 was performed by measuring the COMT activity in a test sample which contained S-COMT enzyme (about 30 nM), 3 mM dopamine (as the substrate of COMT), 5 mM magnesium chloride, 0.05 mM S-adenosyl-L-methionine (AdoMet) and a test compound of the invention at various concentrations in 0.1 M phosphate buffer, pH 7.4, at 37° C.
The reaction in the test sample was initiated by adding the dopamine substrate to the sample mixture and, after incubation for 15 min at 37° C., the reaction was stopped with 4 M perchloric acid and stabilized further 10 min in ice bath. Thereafter the precipitated proteins were removed by centrifugation (4000×G for 10 min). The activity of COMT enzyme was measured by determining the concentration of the reaction products, 3-methyldopamine and 4-methyldopamine, by HPLC. The results were calibrated with 3-methyldopamine standards. See also T. Lotta et al., Biochemistry, vol.34(13), 1995, p.4204. The IC50 value is the concentration of the test compound which causes a 50% decrease in COMT activity.

| IC50 [nM] | SMILES |
| --- | --- |
| 15 | CN1CCN(C(=O)c2ccc3c([N+](=O)[O-])c(O)c(O)cc3c2)CC1 [Example 14, (6,7-Dihydroxy-5-nitro-naphthalen-2-yl)-(4-methyl-piperazin-1-yl)-methanone] |
| 30 | O=C(O)c1ccc2c([N+](=O)[O-])c(O)c(O)cc2c1 [Example 7, 6,7-Dihydroxy-5-nitro-naphthalene-2-carboxylic Acid] |
| 30 | O=[N+]([O-])c1c(O)c(O)cc2ccccc12 [Example 1, 1-Nitronaphthalene-2,3-diol] |
| 80 | O=C(c1ccccc1)c1ccc2c([N+](=O)[O-])c(O)c(O)cc2c1 [Example 3, (6,7-Dihydroxy-5-nitro-naphthalen-2-yl)-phenyl-methanone] |
| 80 | CCCCCCC(=O)c1ccc2c([N+](=O)[O-])c(O)c(O)cc2c1 [Example 9, 1-(6,7-Dihydroxy-5-nitro-naphthalen-2-yl)-heptan-1-one] |
| 100 | N#Cc1c(O)c(O)cc2ccccc12 [Example 13, 2,3-Dihydroxy-naphthalene-1-carbonitrile] |
| 200 | O=Cc1c(O)c(O)cc2ccccc12 [Example 8, 2,3-Dihydroxy-naphthalene-1-carbaldehyde] |
| 140 | O=[N+]([O-])c1c(O)c(O)c(Br)c2ccncc12 [Example 15, 5-Bromo-6,7-dihydroxy-8-nitro-isoquinolinium; Bromide] |
| 45 | CC(C)Cc1ccc2c([N+](=O)[O-])c(O)c(O)cc2c1 [Example 5, 6-Isobutyl-1-nitro-naphthalene-2,3-diol] |
| 25 | CC(C)C(=O)c1ccc2c([N+](=O)[O-])c(O)c(O)cc2c1 [Example 4, 1-(6,7-Dihydroxy-5-nitro-naphthalen-2-yl)-2-methyl-propan-1-one] |
| 25 | CCCN(CCC)S(=O)(=O)c1ccc2c([N+](=O)[O-])c(O)c(O)cc2c1 [Example 11, 6,7-Dihydroxy-5-nitro-naphthalene-2-sulfonic Acid Dipropylamide] |

| SMILES | IC50 [nM] |
| --- | --- |
| O=[N+]([O-])c1ccc2c([N+](=O)[O-])c(O)c(O)cc2c1 [Example 10, 1,6-Dinitro-naphthalene-2,3-diol] | 15 |
